Test results: ChEMBL document CHEMBL1201862, “PubChem BioAssay data set” (2004)
The source made the active and inactive calls.

Assays:
[1] = target: T1, Calpain-2 catalytic subunit (Sus scrofa, UniProt P43367); assay: pig calpain II inhibitor potency, dose response, biochemical, fluorogenic peptide substrate (AID 1420); format: functional
T1 sequence (P43367 whole entry): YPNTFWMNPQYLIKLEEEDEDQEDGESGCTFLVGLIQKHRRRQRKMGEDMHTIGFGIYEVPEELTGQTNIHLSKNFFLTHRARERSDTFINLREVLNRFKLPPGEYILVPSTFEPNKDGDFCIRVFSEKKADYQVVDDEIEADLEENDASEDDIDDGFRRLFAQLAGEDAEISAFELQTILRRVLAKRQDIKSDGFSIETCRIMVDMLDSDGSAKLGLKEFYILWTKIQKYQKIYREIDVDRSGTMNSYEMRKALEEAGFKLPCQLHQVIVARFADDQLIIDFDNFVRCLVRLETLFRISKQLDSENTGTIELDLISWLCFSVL

[2] = target: Potassium voltage-gated channel subfamily KQT member 2 (Rattus norvegicus, UniProt O88943, W236L); assay: KCNQ2 channel potentiators, dose response, mechanism study for KCNQ2 potentiator project, cell-based, automated electrophysiology (AID 2603); format: functional
Potassium voltage-gated channel subfamily KQT member 2, sequence (O88943 whole entry W236L): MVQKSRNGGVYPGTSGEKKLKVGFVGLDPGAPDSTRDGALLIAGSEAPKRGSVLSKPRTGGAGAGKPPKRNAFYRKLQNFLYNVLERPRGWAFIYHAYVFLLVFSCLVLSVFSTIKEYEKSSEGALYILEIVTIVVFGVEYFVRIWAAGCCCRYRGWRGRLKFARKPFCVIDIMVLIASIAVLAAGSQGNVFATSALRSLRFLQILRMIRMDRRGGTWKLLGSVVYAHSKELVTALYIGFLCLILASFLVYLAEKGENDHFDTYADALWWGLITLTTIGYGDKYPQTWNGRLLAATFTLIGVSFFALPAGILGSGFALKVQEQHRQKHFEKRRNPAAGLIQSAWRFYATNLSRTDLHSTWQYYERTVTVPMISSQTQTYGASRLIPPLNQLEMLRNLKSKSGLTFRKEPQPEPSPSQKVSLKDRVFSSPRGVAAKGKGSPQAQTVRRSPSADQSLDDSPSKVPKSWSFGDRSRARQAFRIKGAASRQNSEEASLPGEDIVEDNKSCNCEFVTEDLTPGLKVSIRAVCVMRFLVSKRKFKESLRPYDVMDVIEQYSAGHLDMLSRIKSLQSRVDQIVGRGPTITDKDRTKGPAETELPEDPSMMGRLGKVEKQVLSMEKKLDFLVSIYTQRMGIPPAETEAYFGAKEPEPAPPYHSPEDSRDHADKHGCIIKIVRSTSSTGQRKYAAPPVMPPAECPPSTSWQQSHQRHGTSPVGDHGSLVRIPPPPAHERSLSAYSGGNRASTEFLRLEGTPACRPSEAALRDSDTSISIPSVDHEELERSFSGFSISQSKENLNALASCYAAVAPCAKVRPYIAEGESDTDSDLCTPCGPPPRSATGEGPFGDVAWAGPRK

[3] = target: T2, Estrogen receptor beta (Homo sapiens, UniProt Q92731); assay: ERβ–SRC-3 coactivator interaction inhibitors, confirmation, orthogonal assay, biochemical, ELISA, streptavidin-HRP readout (AID 1060)
T2 sequence (Q92731 whole entry): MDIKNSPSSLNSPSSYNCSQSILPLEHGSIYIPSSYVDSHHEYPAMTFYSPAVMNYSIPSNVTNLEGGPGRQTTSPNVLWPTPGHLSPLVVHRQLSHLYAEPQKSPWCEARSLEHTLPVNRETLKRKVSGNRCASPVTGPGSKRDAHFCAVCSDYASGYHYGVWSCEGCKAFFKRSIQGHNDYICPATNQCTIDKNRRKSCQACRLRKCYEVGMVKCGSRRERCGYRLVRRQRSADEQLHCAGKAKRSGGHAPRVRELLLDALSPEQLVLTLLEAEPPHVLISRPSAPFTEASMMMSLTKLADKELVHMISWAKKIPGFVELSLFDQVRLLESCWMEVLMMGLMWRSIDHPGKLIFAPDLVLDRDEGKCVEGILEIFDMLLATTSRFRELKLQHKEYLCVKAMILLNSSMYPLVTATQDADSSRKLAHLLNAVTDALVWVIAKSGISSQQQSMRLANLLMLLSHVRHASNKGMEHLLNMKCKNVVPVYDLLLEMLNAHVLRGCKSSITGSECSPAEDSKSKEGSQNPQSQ

[4] = target: T2, Estrogen receptor beta
[5] = target: G-protein coupled receptor 55 (Homo sapiens, UniProt Q9Y2T6); assay: GPR55 antagonists blocking LPI-driven arrestin recruitment, primary screen, imaging, U2OS, beta-arrestin-GFP, LPI agonist (AID 2013); format: functional;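 also: antagonist potency measured as reduced agonist-driven arrestin aggregation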
G-protein coupled receptor 55, sequence (Q9Y2T6 whole entry): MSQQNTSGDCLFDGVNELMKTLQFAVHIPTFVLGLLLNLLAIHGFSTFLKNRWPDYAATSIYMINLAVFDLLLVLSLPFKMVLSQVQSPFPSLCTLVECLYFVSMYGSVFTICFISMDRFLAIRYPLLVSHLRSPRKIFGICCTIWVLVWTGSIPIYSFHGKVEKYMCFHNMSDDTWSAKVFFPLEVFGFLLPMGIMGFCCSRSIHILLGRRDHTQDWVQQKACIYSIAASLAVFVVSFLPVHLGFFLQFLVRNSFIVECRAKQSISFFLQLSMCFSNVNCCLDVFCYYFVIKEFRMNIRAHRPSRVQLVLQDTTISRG

[6] = cytotoxicity in KRAS-transformed pancreatic duct cells, primary screen, cell-based, fluorescence, HTS (AID 431); format: functional; settings: Homo sapiens;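 also: cell line used: HPDE-C7K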
[7] = growth suppression of beta-catenin-knockout colon cells, dose response, cell-based, HCT116, human colon tumor (AID 1045); format: functional;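 also: HCT116 colon tumor cells with beta catenin knocked out; cells exposed to compound for 60 hours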
[8] = off-target signal loss in HeLa-CEM21 co-culture – HeLa F-luc CTL cells, cherry-picked, counter-screen for HIV-1 Env fusion inhibitor project, dose response (AID 652040); format: functional, cell-based;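 also: potency for signal decrease marking cytotoxic or nonspecific inhibition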
[9] = ZM109 Env clade C HIV-1 fusion inhibitors, dose response, HeLa effector, CEM target cells, luciferase, cherry-pick (AID 652058); format: functional, cell-based
[10] = inhibitors of HIV Env-driven cell fusion, dose response, cherry-pick (AID 652057); format: functional, cell-based
[11] = inhibitors of clade B AD8 Env fusion, dose response, cell-based, cherry-pick (AID 652062); format: functional;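 also: luciferase signal from cell-cell fusion driven by HIV-1 clade B AD8 Env; potency is for inhibitors of fusion seen as a drop in luminescence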
[12] = cytotoxicity in HPDE-C7 cells, cell-based, fluorescence, HTS (AID 430); format: functional; settings: Homo sapiens
[13] = growth suppression of PTEN-null colon cells, dose response, cell-based, HCT116 PTEN knockout (AID 1047); format: functional;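 also: HCT116 colon tumor cells with PTEN knocked out; cells exposed to compound for 60 hours before readout; potency for loss of cell viability measured by luminescence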
[14] = target: T3, Protein RecA (Mycobacterium tuberculosis, UniProt P9WHJ3); assay: Fluorescence Cell-Free Homogeneous Dose Retest to Identify Inhibitors of RecA-Intein Splicing Activity. [Related pubchem assays (depositor defined):AID2097, AID2223, AID489010, AID492950]; format: functional
T3 sequence (P9WHJ3 whole entry): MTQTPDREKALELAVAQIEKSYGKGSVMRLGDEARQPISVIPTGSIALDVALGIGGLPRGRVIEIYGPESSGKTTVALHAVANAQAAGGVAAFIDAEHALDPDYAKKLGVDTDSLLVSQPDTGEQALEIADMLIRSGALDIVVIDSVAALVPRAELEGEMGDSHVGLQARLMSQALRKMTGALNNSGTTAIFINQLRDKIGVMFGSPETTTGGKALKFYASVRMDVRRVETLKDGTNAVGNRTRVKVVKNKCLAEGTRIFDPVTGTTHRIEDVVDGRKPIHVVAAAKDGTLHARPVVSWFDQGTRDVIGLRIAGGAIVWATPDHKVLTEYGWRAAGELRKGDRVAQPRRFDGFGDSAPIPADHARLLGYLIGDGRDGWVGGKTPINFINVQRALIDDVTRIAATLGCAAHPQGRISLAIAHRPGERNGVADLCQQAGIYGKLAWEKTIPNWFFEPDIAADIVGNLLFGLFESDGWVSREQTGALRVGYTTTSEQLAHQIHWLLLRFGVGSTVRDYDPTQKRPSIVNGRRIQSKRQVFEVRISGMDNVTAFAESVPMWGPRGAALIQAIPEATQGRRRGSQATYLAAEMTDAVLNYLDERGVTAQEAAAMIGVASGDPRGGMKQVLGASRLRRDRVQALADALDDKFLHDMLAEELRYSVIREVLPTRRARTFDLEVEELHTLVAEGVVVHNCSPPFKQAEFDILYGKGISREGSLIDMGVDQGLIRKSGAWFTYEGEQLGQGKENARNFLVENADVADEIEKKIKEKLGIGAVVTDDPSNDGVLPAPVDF

[15] = target: Procathepsin L (Homo sapiens, UniProt P07711); assay: cathepsin L inhibitors, dose response, counter-screen for M1/M17 aminopeptidase inhibitor project, biochemical, QFRET, 1536-well (AID 2214)
Procathepsin L, sequence (P07711 whole entry): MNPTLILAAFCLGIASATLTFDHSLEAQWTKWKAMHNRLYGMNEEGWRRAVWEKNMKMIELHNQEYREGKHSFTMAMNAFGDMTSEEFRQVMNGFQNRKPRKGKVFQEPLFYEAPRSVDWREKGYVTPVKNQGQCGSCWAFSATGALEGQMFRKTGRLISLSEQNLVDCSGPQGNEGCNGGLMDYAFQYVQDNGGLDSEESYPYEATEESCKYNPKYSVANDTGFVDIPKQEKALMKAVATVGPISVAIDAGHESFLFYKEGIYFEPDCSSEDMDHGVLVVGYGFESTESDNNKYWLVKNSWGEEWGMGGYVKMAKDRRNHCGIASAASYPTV

[16] = target: Aspartyl aminopeptidase (Plasmodium falciparum 3D7, UniProt Q8I2J3); assay: Counterscreen for inhibitors of M1 and M17 aminopeptidases: QFRET-based biochemical high throughput dose response assay for inhibitors of the Plasmodium falciparum M18 Aspartyl Aminopeptidase (PFM18AAP). [Related PubChem assays: 1619 (Screening assay (M17LAP inhibitors).), 1445 (Screening assay (M1AAP inhibitors).)]
Aspartyl aminopeptidase, sequence (Q8I2J3 whole entry): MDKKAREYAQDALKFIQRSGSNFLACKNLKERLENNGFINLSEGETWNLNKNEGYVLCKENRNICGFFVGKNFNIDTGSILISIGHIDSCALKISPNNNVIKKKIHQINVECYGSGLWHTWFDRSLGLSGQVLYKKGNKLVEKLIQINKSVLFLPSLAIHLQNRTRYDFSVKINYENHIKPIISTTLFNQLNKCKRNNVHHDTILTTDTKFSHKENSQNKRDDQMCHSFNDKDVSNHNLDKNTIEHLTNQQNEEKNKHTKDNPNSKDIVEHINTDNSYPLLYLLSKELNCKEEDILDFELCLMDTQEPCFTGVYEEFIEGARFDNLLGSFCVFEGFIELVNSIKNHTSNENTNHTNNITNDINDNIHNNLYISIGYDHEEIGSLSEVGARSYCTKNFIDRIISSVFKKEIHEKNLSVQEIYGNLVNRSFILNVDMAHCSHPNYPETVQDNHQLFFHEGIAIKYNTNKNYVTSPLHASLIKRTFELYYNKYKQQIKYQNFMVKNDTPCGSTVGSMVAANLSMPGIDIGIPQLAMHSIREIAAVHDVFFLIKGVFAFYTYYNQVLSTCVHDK

[17] = target: T4, Replicative DNA helicase DnaB (Mycobacterium tuberculosis, UniProt P9WMR3); assay: DnaB intein splicing inhibitors, dose response, biochemical, cell-free fluorescence (AID 449749); format: functional
T4 sequence (P9WMR3 whole entry): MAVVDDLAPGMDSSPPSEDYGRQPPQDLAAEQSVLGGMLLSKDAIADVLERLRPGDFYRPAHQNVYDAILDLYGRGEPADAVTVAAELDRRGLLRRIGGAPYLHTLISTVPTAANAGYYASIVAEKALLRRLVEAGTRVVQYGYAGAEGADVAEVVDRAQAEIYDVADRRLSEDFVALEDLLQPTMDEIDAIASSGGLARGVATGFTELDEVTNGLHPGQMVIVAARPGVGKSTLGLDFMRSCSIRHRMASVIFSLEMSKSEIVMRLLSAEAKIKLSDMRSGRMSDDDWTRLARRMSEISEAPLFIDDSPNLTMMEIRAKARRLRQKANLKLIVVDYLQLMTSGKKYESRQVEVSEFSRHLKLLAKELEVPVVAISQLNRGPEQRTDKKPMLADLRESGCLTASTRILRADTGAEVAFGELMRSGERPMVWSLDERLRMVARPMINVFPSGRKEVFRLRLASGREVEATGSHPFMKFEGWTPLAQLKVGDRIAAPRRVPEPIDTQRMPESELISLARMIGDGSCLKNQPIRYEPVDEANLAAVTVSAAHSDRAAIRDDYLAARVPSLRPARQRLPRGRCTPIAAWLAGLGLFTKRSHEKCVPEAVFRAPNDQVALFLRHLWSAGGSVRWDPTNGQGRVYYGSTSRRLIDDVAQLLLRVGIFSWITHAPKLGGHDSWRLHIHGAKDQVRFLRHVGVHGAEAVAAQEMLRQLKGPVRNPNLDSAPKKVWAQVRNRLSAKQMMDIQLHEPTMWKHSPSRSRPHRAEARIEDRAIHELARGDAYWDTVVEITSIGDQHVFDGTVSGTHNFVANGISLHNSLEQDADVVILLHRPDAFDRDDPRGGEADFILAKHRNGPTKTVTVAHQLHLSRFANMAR

[18] = target: T5, Leucine aminopeptidase (Plasmodium falciparum 3D7, UniProt Q8IL11); assay: P. falciparum M17LAP inhibitors, primary screen, biochemical, fluorogenic H-Leu-NHMec substrate, 1536-well (AID 1619); format: functional
T5 sequence (Q8IL11 whole entry): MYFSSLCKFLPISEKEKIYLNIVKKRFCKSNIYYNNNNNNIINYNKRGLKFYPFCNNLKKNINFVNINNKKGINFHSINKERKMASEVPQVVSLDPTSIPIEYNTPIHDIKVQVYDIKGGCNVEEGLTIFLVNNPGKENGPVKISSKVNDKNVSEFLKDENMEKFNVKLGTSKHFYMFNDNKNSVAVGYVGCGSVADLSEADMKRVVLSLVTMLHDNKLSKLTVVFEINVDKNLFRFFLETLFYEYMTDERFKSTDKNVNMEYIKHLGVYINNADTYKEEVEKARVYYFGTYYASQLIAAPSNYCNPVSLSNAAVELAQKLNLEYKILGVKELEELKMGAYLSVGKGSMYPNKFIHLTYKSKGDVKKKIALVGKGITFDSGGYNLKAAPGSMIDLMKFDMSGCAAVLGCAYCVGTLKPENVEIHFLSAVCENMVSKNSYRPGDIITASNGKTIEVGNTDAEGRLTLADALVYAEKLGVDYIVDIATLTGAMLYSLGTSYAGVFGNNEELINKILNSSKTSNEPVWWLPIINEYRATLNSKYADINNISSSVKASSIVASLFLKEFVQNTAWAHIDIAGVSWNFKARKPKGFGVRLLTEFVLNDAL

[19] = target: Large T antigen (Simian virus 40, UniProt P03070); format: functional, Betapolyomavirus macacae;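 also: Confirmatory-stage PubChem screen for compounds that inhibit SV40 T antigen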
Large T antigen, sequence (P03070 whole entry): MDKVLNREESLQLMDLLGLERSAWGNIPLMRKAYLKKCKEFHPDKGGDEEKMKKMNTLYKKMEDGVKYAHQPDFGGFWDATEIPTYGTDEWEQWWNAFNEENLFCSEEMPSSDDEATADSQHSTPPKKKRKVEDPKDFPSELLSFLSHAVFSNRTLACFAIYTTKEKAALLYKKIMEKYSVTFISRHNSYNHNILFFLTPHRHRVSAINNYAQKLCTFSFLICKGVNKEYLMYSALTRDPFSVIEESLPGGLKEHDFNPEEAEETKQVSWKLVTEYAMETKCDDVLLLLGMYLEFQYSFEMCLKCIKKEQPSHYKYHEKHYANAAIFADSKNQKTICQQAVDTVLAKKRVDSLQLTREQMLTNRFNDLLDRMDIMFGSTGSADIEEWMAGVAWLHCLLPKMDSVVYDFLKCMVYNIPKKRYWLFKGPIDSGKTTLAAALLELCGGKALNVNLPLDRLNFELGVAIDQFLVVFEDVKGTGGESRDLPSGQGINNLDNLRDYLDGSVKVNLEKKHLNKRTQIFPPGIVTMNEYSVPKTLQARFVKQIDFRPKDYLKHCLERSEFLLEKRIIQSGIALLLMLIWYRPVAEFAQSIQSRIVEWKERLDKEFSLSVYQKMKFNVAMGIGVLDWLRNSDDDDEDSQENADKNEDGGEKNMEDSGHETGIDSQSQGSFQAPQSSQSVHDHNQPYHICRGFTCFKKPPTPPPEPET

[20] = target: Protein-tyrosine kinase 2-beta (Homo sapiens, UniProt Q14289);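 also: potency of inhibitors of PYK2 kinase phosphorylation of poly-GT substrate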
Protein-tyrosine kinase 2-beta, sequence (Q14289 whole entry): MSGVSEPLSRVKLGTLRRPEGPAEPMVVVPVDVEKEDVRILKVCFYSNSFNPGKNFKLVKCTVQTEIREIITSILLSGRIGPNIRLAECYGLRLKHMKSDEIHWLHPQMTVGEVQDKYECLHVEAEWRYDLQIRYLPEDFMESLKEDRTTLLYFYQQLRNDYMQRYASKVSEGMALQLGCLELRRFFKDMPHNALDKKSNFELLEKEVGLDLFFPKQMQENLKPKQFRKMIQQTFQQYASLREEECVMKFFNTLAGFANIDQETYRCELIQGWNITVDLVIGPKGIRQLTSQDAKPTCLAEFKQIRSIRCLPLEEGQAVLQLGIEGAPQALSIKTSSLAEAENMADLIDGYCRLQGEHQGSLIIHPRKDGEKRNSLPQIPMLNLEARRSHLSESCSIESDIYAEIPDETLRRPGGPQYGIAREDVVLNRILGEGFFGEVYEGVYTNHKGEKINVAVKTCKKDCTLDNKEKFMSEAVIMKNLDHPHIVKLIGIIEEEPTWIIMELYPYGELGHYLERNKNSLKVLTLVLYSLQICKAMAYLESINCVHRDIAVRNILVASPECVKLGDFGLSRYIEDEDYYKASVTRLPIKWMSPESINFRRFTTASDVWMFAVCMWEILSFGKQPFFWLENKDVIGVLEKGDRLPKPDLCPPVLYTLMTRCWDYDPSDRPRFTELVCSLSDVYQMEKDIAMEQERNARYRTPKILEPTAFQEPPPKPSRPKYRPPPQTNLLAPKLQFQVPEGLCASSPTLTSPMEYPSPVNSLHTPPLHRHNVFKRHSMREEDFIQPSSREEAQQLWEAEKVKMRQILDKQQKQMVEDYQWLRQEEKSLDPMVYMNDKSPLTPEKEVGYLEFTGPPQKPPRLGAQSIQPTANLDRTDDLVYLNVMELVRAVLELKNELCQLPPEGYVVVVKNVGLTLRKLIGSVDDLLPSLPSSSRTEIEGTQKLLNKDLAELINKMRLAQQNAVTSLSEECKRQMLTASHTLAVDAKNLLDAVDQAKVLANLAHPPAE

[21] = target: Melanin-concentrating hormone receptor 1 (Homo sapiens, UniProt Q99705); assay: Fluorescence-based counterscreen for antagonists of the G-protein coupled receptor 7 (GPR7): cell-based high throughput dose response assay to identify antagonists of the melanin-concentrating hormone receptor 1 (MCHR1).; format: functional
Melanin-concentrating hormone receptor 1, sequence (Q99705 whole entry): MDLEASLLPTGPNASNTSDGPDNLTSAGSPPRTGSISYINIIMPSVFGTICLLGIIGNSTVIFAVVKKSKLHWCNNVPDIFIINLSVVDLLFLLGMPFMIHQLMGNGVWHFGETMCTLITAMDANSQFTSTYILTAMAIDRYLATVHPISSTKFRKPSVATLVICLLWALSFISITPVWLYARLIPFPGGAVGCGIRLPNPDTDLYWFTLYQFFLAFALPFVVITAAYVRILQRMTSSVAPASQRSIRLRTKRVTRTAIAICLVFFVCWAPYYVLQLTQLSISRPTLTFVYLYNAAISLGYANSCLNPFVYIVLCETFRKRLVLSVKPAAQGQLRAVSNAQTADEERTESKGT

[22] = target: Neuropeptides B/W receptor type 1 (Homo sapiens, UniProt P48145); assay: Fluorescence-based dose response cell-based high throughput screening assay to identify antagonists of the G-protein coupled receptor 7 (GPR7). [Related pubchem assays: 1952 (Screening assay (GPR7 antagonists).), 1880 (Summary AID.)]; format: functional
Neuropeptides B/W receptor type 1, sequence (P48145 whole entry): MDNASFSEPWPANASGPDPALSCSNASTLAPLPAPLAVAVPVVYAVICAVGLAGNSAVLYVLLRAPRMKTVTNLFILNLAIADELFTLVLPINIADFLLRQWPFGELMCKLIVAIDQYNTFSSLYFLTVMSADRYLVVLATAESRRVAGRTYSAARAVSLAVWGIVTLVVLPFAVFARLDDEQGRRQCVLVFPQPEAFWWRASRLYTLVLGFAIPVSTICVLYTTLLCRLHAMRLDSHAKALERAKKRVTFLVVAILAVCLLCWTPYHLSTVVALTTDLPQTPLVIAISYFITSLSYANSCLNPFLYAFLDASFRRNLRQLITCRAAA

[23] = target: T6, Neuropeptide Y receptor type 1 (Homo sapiens, UniProt P25929); assay: NPY-Y1 receptor antagonist potency, dose response, cell-based (AID 1277); format: functional
T6 sequence (P25929 whole entry): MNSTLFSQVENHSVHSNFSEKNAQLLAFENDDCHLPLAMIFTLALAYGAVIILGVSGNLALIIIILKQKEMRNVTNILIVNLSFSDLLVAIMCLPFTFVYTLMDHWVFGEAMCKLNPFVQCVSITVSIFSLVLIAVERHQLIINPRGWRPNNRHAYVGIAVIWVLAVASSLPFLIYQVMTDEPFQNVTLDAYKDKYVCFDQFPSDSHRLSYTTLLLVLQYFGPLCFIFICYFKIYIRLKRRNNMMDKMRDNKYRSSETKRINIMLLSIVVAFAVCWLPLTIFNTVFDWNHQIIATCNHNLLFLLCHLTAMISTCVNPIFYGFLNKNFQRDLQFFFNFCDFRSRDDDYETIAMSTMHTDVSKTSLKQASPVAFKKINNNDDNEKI

[24] = target: T7, Neuropeptide Y receptor type 2 (Homo sapiens, UniProt P49146); assay: NPY-Y2 antagonist potency, selectivity check, dose response, counter-screen for NPY-Y1 antagonist project, cell-based (AID 1278); format: functional
T7 sequence (P49146 whole entry): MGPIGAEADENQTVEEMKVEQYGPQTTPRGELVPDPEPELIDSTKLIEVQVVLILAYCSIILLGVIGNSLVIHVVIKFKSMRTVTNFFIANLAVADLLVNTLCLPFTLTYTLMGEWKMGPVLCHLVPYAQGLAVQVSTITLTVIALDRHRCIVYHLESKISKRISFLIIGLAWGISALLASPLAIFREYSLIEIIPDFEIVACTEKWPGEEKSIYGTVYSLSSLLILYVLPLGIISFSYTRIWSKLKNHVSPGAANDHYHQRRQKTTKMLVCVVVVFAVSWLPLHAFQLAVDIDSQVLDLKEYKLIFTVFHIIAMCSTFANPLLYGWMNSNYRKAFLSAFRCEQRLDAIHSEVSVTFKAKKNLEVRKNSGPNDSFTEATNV

SMILES: CCCCn1c(-c2csc(C(C)C)c2)n[nH]c1=S
- IC50 [1]: > 50 µM (not active)
- EC50 [2]: 308 µM (active)

SMILES: CC1CCCCN1CC(=O)Nc1sc2c(c1C#N)CCC2 (centres undefined)
- IC50 [3]: > 50 µM (not active)
- IC50 [4]: > 50 µM (not active)

SMILES: COc1ccc(CCN2C(=O)c3[nH]nc(-c4ccccc4O)c3C2c2ccc(C)cc2)cc1OC (centres undefined)
- IC50 [5]: 2.9 µM (active)
- EC50 [6]: 9.9 µM (active)
- EC50 [7]: 21.6 µM (active)
- AC50 [8]: 3.34 µM (active)
- AC50 [9]: 2.58 µM (active)
- AC50 [10]: 2.11 µM (active)
- AC50 [11]: 6.57 µM (active)
- EC50 [12]: 8.11 µM (active)
- EC50 [13]: 21.1 µM (active)

SMILES: O=[N+]([O-])c1cccc(-c2cc(O)n[nH]2)c1
- EC50 [14]: 2.57 µM (active)
- IC50 [15]: > 59.6 µM (not active)
- IC50 [16]: > 73.5 µM (not active)
- AC50 [17]: 7.14 µM (active)
- IC50 [18]: 6.99 µM (active)

SMILES: CCc1ccc2nc3n[nH]c(N)c3cc2c1
- IC50 [19]: 13.5 µM (active)
- IC50 [20]: 24.9 µM (not active)

SMILES: O=C(NC1CCCCC1)C(c1ccncc1)N(Cc1ccc2c(c1)OCO2)C(=O)c1cnsn1 (centres undefined)
- IC50 [21]: > 43.8 µM (not active)
- IC50 [22]: > 43.8 µM (not active)
- IC50 [23]: 32.2 µM (not active)
- IC50 [24]: > 35 µM (not active)
